From patent publication US8399683B2 (TetraLogic Pharmaceuticals, priority 2008, dated 2013) come the findings set out here.

One assay has as its target cIAP-1 BIR-3 (Homo sapiens, UniProt Q13490). Description: Fluorescence polarization binding affinity to cIAP-1 BIR-3 (competition with AbuRPF-K(5-Fam)-NH2). Conditions: 5 nM labeled peptide, 40 nM BIR3, 15 min at RT, pH 7.5; reported as ranges; read-out: KD (c-IAP-1 BIR3). As to the method: (§1) The binding affinities of the compounds are reported as a KD value (μM). Briefly, various concentrations of test peptides were mixed with 5 nM of the fluorescently labeled peptide (i.e., a mutated N-terminal Smac peptide—AbuRPF-K(5-Fam)-NH2) and 40 nM of the respective IAP BIR3 for 15 min at RT in […] of 0.1M Potassium Phosphate buffer, pH 7.5 containing […] bovine g-globulin. Following incubation, the polarization values (mP) were measured on a Victor2V (available from PerkinElmer Life Sciences) using a 485 nm excitation filter and a 520 nm emission filter. The reported KD values are supplied as ranges (A=<0.1 μM, B=0.1 μM to 1 μM, C>1 μM to 10 μM, D=>10 μM).

Another assay deals with T1, XIAP BIR-3 (Homo sapiens, UniProt P98170).
T1 construct: 40 nM of the respective IAP BIR3
T1 sequence (P98170 241-356 limits assumed): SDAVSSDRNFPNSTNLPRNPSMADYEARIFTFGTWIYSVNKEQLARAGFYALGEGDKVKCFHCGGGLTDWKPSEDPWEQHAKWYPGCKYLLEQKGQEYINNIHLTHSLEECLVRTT
Description: Fluorescence polarization binding affinity to XIAP BIR-3 (competition with AbuRPF-K(5-Fam)-NH2). The conditions noted are these: 5 nM labeled peptide, 40 nM BIR3, 15 min at RT, pH 7.5; reported as ranges. As to the method:
as §1
(Polarisation of emitted light reports the rotation of a fluorescent probe.)

In another assay the test system is SK-OV-3 cells. The experiment in a line: Growth inhibition of ovarian cancer cell line SK-OV-3 (MTT assay, cell survival). Format: cell-based. Conditions: Homo sapiens, drug concentration that results in 50% cell survival, 72 hrs incubation, reported as ranges. As to the method: Compounds of the invention also were tested for their ability to inhibit the growth of an ovarian cancer cell line, SK-OV-3. A known assay previously used for measuring cell growth (as described in Hansen, M. B., Nielsen, S. E., and Berg, K. (1989) J. Immunol. Methods 119, 203-210 and incorporated herein by reference in its entirety) was used. Briefly, SK-OV-3 cells are seeded in 96-well plates in McCoy's medium containing 10% fetal bovine serum albumin (5,000 per well) and incubated overnight at 37° C. The next day, test compounds are added at various concentrations (0.003-10 μM) and the plates are incubated at 37° C. for an additional 72 hrs. This incubation time was considered to be optimal for measuring inhibitory effects of the different compounds tested. 50 microliters of 5 mg/mL MTT reagent is added to each well and the plates are incubated at 37° C. for another three (3) hours. At the end of the three (3) hour incubation period, 50 microliters of DMSO is added to each well to dissolve cells and the optical density (OD) of the wells is measured with a microplate reader (Victor^2 1420, Wallac, Finland) at 535 nm. Cell survival (CS) was calculated using the following equation: CS=(OD treated well/mean OD control wells)×100%.
The CC50 (reported in the following tables), is defined as the drug concentration that results in 50% cell survival (CS), and is derived by calculating the point where the dose-response curve crosses the 50% CS point using GraphPad Prism. The reported CC50 values are supplied as ranges (A=<0.1 μM, B=0.1 μM to 1 μM, C=>1 μM to 10 μM, D=>10 μM).
(In general: Tetrazolium dyes change colour on reduction, which living cells bring about.)

The structures appear in SMILES notation.

Chain of cIAP-1 BIR-3 (Q13490 266-352 limits assumed): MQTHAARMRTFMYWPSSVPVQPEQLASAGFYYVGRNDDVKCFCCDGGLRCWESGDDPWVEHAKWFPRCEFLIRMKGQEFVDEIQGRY

What is called Kd is a measure of binding affinity in units of concentration. One may read the CC50 as the concentration that lowers cell viability or growth by half. Low readings indicate harm at low concentration, high ones better tolerance by the cells. For `CN[C@@H](C)C(=O)N[C@H](C(=O)N1CC[C@H]2NC[C@@H](c3c[nH]c4ccccc34)[C@H]21)C1CCCCC1` [Example 1, N-{1S-Cyclohexyl-2-[(3aR,6aR)-6R-(1H-indol-3-yl)-hexahydro-pyrrolo[3,2-b]pyrrol-1-yl]-2-oxo-ethyl}-2S-methylamino-propionamide], the Kd on cIAP-1 BIR-3 and on XIAP BIR-3 was greater than 10000 nM each time. In addition, the cytotoxic concentration (CC50) with SK-OV-3 cells was in the range of 1000 to 10000 nM.
In the case of `CN[C@@H](C)C(=O)N[C@H](C(=O)N1CC[C@H]2NC[C@H](c3c[nH]c4ccccc34)[C@H]21)C1CCCCC1` [Example 2, N-{1S-Cyclohexyl-2-[(3aR,6aR)-6S-(1H-indol-3-yl)-hexahydro-pyrrolo[3,2-b]pyrrol-1-yl]-2-oxo-ethyl}-2S-methylamino-propionamide], the dissociation constant Kd on cIAP-1 BIR-3 and at XIAP BIR-3 was less than 100 nM throughout. In the assay with SK-OV-3 cells, the CC50 lay in the range of 100 to 1000 nM.
On to `CN[C@@H](C)C(=O)N[C@H](C(=O)N1CC[C@@H]2[C@H]1[C@H](c1c[nH]c3cc(F)ccc13)CN2C1CCCC1)C(C)(C)C` [Example 3, N-{1-[4-Cyclopentyl-6-(6-fluoro-1H-indol-3-yl)-hexahydro-pyrrolo[3,2-b]pyrrole-1-carbonyl]-2,2-dimethyl-propyl}-2-methylamino-propionamide], for which the Kd on cIAP-1 BIR-3 and at XIAP BIR-3 was 1000 to 10000 nM throughout. The compound further came in with a cytotoxic concentration (CC50) in the assay with SK-OV-3 cells of 1000 to 10000 nM.
Turning to `CN[C@@H](C)C(=O)N[C@H](C(=O)N1CC[C@@H]2[C@H]1[C@@H](c1c[nH]c3cc(F)ccc13)CN2C1CCCC1)C(C)(C)C` [Example 4], the Kd at cIAP-1 BIR-3 and at XIAP BIR-3 was less than 100 nM in each case. Further, the CC50 with SK-OV-3 cells was less than 100 nM.
For the compound `CC[C@H](NC(=O)[C@H](C)NC)C(=O)N1CC[C@@H]2[C@H]1[C@H](c1c[nH]c3cc(F)ccc13)CN2C1CCCC1` [Example 5, N-{1-[4-Cyclopentyl-6-(6-fluoro-1H-indol-3-yl)-hexahydro-pyrrolo[3,2-b]pyrrole-1-carbonyl]-propyl}-2-methylamino-propionamide], the Kd is 100 to 1000 nM on cIAP-1 BIR-3 and greater than 10000 nM at XIAP BIR-3. This compound returned a half-maximal cytotoxic concentration (CC50) with SK-OV-3 cells of 1000 to 10000 nM.
As to `CC[C@H](NC(=O)[C@H](C)NC)C(=O)N1CC[C@@H]2[C@H]1[C@@H](c1c[nH]c3cc(F)ccc13)CN2C1CCCC1` [Example 6], the equilibrium dissociation constant (Kd) at cIAP-1 BIR-3 and at XIAP BIR-3 was 100 to 1000 nM each time. The same compound returned a CC50 with SK-OV-3 cells of 100 to 1000 nM.
As to `CN[C@@H](C)C(=O)N[C@H](C(=O)N1CC[C@@H]2[C@H]1[C@H](c1c[nH]c3cc(F)ccc13)CN2C1CCCC1)C(C)C` [Example 7, N-{1-[4-Cyclopentyl-6-(6-fluoro-1H-indol-3-yl)-hexahydro-pyrrolo[3,2-b]pyrrole-1-carbonyl]-2-methyl-propyl}-2-methylamino-propionamide], the figures for the Kd on cIAP-1 BIR-3 and at XIAP BIR-3 were 100 to 1000 nM and 1000 to 10000 nM, respectively. Further, the CC50 in the assay with SK-OV-3 cells lay in the range of 1000 to 10000 nM.
With `CN[C@@H](C)C(=O)N[C@H](C(=O)N1CC[C@@H]2[C@H]1[C@@H](c1c[nH]c3cc(F)ccc13)CN2C1CCCC1)C(C)C` [Example 8], the equilibrium dissociation constant (Kd) was less than 100 nM at cIAP-1 BIR-3 and 100 to 1000 nM at XIAP BIR-3. Further, in the assay with SK-OV-3 cells, the CC50 lay in the range of 100 to 1000 nM.
In the case of `CN[C@@H](C)C(=O)N[C@H](C(=O)N1CC[C@@H]2[C@H]1[C@@H](c1c[nH]c3cc(F)ccc13)CN2C1CCCC1)C1CCCCC1` [Example 9, N-{1-Cyclohexyl-2-[4-cyclopentyl-6-(6-fluoro-1H-indol-3-yl)-hexahydro-pyrrolo[3,2-b]pyrrol-1-yl]-2-oxo-ethyl}-2-methylamino-propionamide], the figures for the dissociation constant Kd at cIAP-1 BIR-3 and at XIAP BIR-3 were less than 100 nM and 100 to 1000 nM, respectively. Besides, in the assay with SK-OV-3 cells, the half-maximal cytotoxic concentration (CC50) is less than 100 nM.
As to `CN[C@@H](C)C(=O)N[C@@H](CO)C(=O)N1CC[C@@H]2[C@H]1[C@H](c1c[nH]c3cc(F)ccc13)CN2C1CCCC1` [Example 10, N-{2-[4-Cyclopentyl-6-(6-fluoro-1H-indol-3-yl)-hexahydro-pyrrolo[3,2-b]pyrrol-1-yl]-1-hydroxymethyl-2-oxo-ethyl}-2-methylamino-propionamide], the Kd at cIAP-1 BIR-3 was 100 to 1000 nM; on XIAP BIR-3 it was greater than 10000 nM. Also, the CC50 with SK-OV-3 cells lay within 1000 to 10000 nM.
Turning to `CN[C@@H](C)C(=O)N[C@@H](CO)C(=O)N1CC[C@@H]2[C@H]1[C@@H](c1c[nH]c3cc(F)ccc13)CN2C1CCCC1` [Example 11], the values for the dissociation constant (Kd) on cIAP-1 BIR-3 and on XIAP BIR-3 were less than 100 nM and 100 to 1000 nM, respectively. Further, the CC50 in the assay on SK-OV-3 cells was greater than 10000 nM.
Regarding `CN[C@@H](C)C(=O)N[C@@H](COC)C(=O)N1CC[C@@H]2[C@H]1[C@H](c1c[nH]c3cc(F)ccc13)CN2C1CCCC1` [Example 12, N-{2-[4-Cyclopentyl-6-(6-fluoro-1H-indol-3-yl)-hexahydro-pyrrolo[3,2-b]pyrrol-1-yl]-1-methoxymethyl-2-oxo-ethyl}-2-methylamino-propionamide], the values for the dissociation constant (Kd) at cIAP-1 BIR-3 and at XIAP BIR-3 were less than 100 nM and 1000 to 10000 nM, respectively. Moreover, the CC50 in the assay on SK-OV-3 cells is greater than 10000 nM.
The corresponding values for `CN[C@@H](C)C(=O)N[C@@H](COC)C(=O)N1CC[C@@H]2[C@H]1[C@@H](c1c[nH]c3cc(F)ccc13)CN2C1CCCC1` [Example 13] are 100 to 1000 nM, 1000 to 10000 nM and 1000 to 10000 nM.
For the compound `CN[C@@H](C)C(=O)N[C@H](C(=O)N1CC[C@@H]2[C@H]1[C@H](c1c[nH]c3cc(F)ccc13)CN2C1CCCC1)[C@@H](C)O` [Example 14, N-{1-[4-Cyclopentyl-6-(6-fluoro-1H-indol-3-yl)-hexahydro-pyrrolo[3,2-b]pyrrole-1-carbonyl]-2-hydroxy-propyl}-2-methylamino-propionamide], the dissociation constant (Kd) at cIAP-1 BIR-3 was 100 to 1000 nM; on XIAP BIR-3 it was greater than 10000 nM. This compound also came in with a cytotoxic concentration (CC50) in the assay with SK-OV-3 cells greater than 10000 nM.
Take `CN[C@@H](C)C(=O)N[C@H](C(=O)N1CC[C@@H]2[C@H]1[C@@H](c1c[nH]c3cc(F)ccc13)CN2C1CCCC1)[C@@H](C)O` [Example 15]: the dissociation constant (Kd) on cIAP-1 BIR-3 and on XIAP BIR-3 was 100 to 1000 nM throughout. In addition, the CC50 in the assay with SK-OV-3 cells was in the range of 100 to 1000 nM.
As for `CN[C@@H](C)C(=O)N[C@H](C(=O)N1CC[C@@H]2[C@H]1[C@@H](c1c[nH]c3cc(F)ccc13)CN2C1CCCC1)[C@@H](C)OC` [Example 16, N-{1-[4-Cyclopentyl-6-(6-fluoro-1H-indol-3-yl)-hexahydro-pyrrolo-[3,2-b]pyrrole-1-carbonyl]-2-methoxy-propyl}-2-methylamino-propionamide], the dissociation constant (Kd) at cIAP-1 BIR-3 is less than 100 nM; at XIAP BIR-3 it was 100 to 1000 nM. In the assay with SK-OV-3 cells, the CC50 was 100 to 1000 nM.
As for `CN[C@@H](C)C(=O)N[C@H](C(=O)N1CC[C@@H]2[C@H]1[C@@H](c1c[nH]c3cc(F)ccc13)CN2C)C1CCCCC1` [Example 17, N-{1-Cyclohexyl-2-[6-(6-fluoro-1H-indol-3-yl)-4-methyl-hexahydro-pyrrolo[3,2-b]pyrrol-1-yl]-2-oxo-ethyl}-2-methylamino-propionamide], the Kd at cIAP-1 BIR-3 was less than 100 nM; on XIAP BIR-3, 100 to 1000 nM. For the same compound, the CC50 with SK-OV-3 cells is 100 to 1000 nM.
As for `CCN1C[C@H](c2c[nH]c3cc(F)ccc23)[C@@H]2[C@H]1CCN2C(=O)[C@@H](NC(=O)[C@H](C)NC)C1CCCCC1` [Example 18, N-{1-Cyclohexyl-2-[4-ethyl-6-(6-fluoro-1H-indol-3-yl)-hexahydro-pyrrolo[3,2-b]pyrrol-1-yl]-2-oxo-ethyl}-2-methylamino-propionamide], the values for the Kd at cIAP-1 BIR-3 and on XIAP BIR-3 were less than 100 nM and 100 to 1000 nM, respectively. Also, in the assay with SK-OV-3 cells, the CC50 fell in the range of 100 to 1000 nM.
